Assay: Respiratory rate (vital signs)
Details: 60 mg
Description: The Investigational Medicinal Product (IMP) R(−)-ketamine hydrochloride in sterile water for intravenous injection was investigated as an […] treatment of TRD. The International Union of Pure and Applied Chemistry (IUPAC) name is of the IMP is (2R)-2-(2-chlorophenyl)-2-(methylamino)cyclohexan-1-one. Subjects received the solution at either 30 mg or 60 mg dose, or a placebo. The IMP or placebo was administered on Day 1 as a single IV infusion via an electronic infusion pump over 40 minutes. The duration of study participation for each subject was up to 29 days including a screening period, a 3-day in-clinic visit, and 2 follow-up visits. 101 subjects were enrolled in approximately 20 study centers in the EU and the US.
Tympanic or temporal temperature, heart rate, blood pressure (SBP/DBP), respiratory rate, and SpO2 were assessed. Blood pressure and pulse measurements will be assessed with a completely automated device while the subject is supine or semi-supine. Manual techniques will be used only if an automated device is not available. Blood pressure and pulse measurements should be preceded by at least 5 minutes of rest for the subject in a quiet setting without distractions (e.g., television, cell phones). An abnormal blood pressure value at screening may be repeated once after 5 minutes of relaxation to determine the subject's eligibility. Blood pressure was recorded using the same arm and position (supine or semi-supine) throughout the study, where possible. Vital signs (to be taken before blood collection for laboratory tests) consisted of 1 pulse and 3 blood pressure measurements (3 consecutive blood pressure readings will be recorded at intervals of at least 1 minute). The average of the 3 blood pressure readings was recorded in the CRF. A pulse oximeter was used to measure peripheral capillary oxygen saturation (SpO2) continuously from pre-dose until 4-hours post-dose. A pulse oximeter was clipped onto the finger or foot of the subject, and light will be sent through the finger or foot and measured on the other side.
In these tables, baseline value is defined as the last non-missing value prior to study drug administration.

CN[C@@]1(c2ccccc2Cl)CCCCC1=O.Cl [R(−)-ketamine, (2R)-2-(2-chlorophenyl)-2-(methylamino)cyclohexan-1-one]
Respiratory Rate, Max (Day 1, 15 minutes): 18 breaths/minute | Respiratory Rate, Mean (Day 1, 15 minutes): 15.5 breaths/minute | Respiratory Rate, Median (Day 1, 15 minutes): 15.0 breaths/minute | Respiratory Rate, Min (Day 1, 15 minutes): 14 breaths/minute | Respiratory Rate, Max (Day 1, 40 minutes): 23 breaths/minute | Respiratory Rate, Mean (Day 1, 40 minutes): 15.9 breaths/minute | Respiratory Rate, Median (Day 1, 40 minutes): 16.0 breaths/minute | Respiratory Rate, Min (Day 1, 40 minutes): 12 breaths/minute | Respiratory Rate, Max (Day 1, 60 minutes): 16 breaths/minute | Respiratory Rate, Mean (Day 1, 60 minutes): 15.2 breaths/minute | Respiratory Rate, Median (Day 1, 60 minutes): 16.0 breaths/minute | Respiratory Rate, Min (Day 1, 60 minutes): 12 breaths/minute | Respiratory Rate, Max (Day 1, 2 hours): 19 breaths/minute | Respiratory Rate, Mean (Day 1, 2 hours): 15.5 breaths/minute | Respiratory Rate, Median (Day 1, 2 hours): 16.0 breaths/minute | Respiratory Rate, Min (Day 1, 2 hours): 11 breaths/minute | Respiratory Rate, Max (Day 1, 4 hours): 20 breaths/minute | Respiratory Rate, Mean (Day 1, 4 hours): 15.9 breaths/minute | Respiratory Rate, Median (Day 1, 4 hours): 16.0 breaths/minute | Respiratory Rate, Min (Day 1, 4 hours): 12 breaths/minute | Respiratory Rate, Max (Day 1, 6 hours): 20 breaths/minute | Respiratory Rate, Mean (Day 1, 6 hours): 15.7 breaths/minute | Respiratory Rate, Median (Day 1, 6 hours): 16.0 breaths/minute | Respiratory Rate, Min (Day 1, 6 hours): 12 breaths/minute | Respiratory Rate, Max (Day 2 - Discharge): 20 breaths/minute | Respiratory Rate, Mean (Day 2 - Discharge): 15.9 breaths/minute | Respiratory Rate, Median (Day 2 - Discharge): 16.0 breaths/minute | Respiratory Rate, Min (Day 2 - Discharge): 12 breaths/minute | Respiratory Rate, Max (Day 8): 18 breaths/minute | Respiratory Rate, Mean (Day 8): 15.7 breaths/minute | Respiratory Rate, Median (Day 8): 16.0 breaths/minute | Respiratory Rate, Min (Day 8): 12 breaths/minute | Respiratory Rate, Max (Day 15): 20 breaths/minute | Respiratory Rate, Mean (Day 15): 15.8 breaths/minute | Respiratory Rate, Median (Day 15): 16.0 breaths/minute | Respiratory Rate, Min (Day 15): 12 breaths/minute | Respiratory Rate, Change from Baseline, Max (to Day 1, 15 minutes): 2 breaths/minute | Respiratory Rate, Change from Baseline, Mean (to Day 1, 15 minutes): −0.6 breaths/minute | Respiratory Rate, Change from Baseline, Median (to Day 1, 15 minutes): −1.0 breaths/minute | Respiratory Rate, Change from Baseline, Min (to Day 1, 15 minutes): −4 breaths/minute | Respiratory Rate, Change from Baseline, Max (to Day 1, 40 minutes): 4 breaths/minute | Respiratory Rate, Change from Baseline, Mean (to Day 1, 40 minutes): −0.0 breaths/minute | Respiratory Rate, Change from Baseline, Median (to Day 1, 40 minutes): 0.0 breaths/minute | Respiratory Rate, Change from Baseline, Min (to Day 1, 40 minutes): −4 breaths/minute | Respiratory Rate, Change from Baseline, Max (to Day 1, 60 minutes): 1 breaths/minute | Respiratory Rate, Change from Baseline, Mean (to Day 1, 60 minutes): −0.8 breaths/minute | Respiratory Rate, Change from Baseline, Median (to Day 1, 60 minutes): −1.0 breaths/minute | Respiratory Rate, Change from Baseline, Min (to Day 1, 60 minutes): −4 breaths/minute | Respiratory Rate, Change from Baseline, Max (to Day 1, 2 hours): 2 breaths/minute | Respiratory Rate, Change from Baseline, Mean (to Day 1, 2 hours): −0.5 breaths/minute | Respiratory Rate, Change from Baseline, Median (to Day 1, 2 hours): 0.0 breaths/minute | Respiratory Rate, Change from Baseline, Min (to Day 1, 2 hours): −4 breaths/minute | Respiratory Rate, Change from Baseline, Max (to Day 1, 4 hours): 3 breaths/minute | Respiratory Rate, Change from Baseline, Mean (to Day 1, 4 hours): −0.1 breaths/minute | Respiratory Rate, Change from Baseline, Median (to Day 1, 4 hours): 0.0 breaths/minute | Respiratory Rate, Change from Baseline, Min (to Day 1, 4 hours): −4 breaths/minute | Respiratory Rate, Change from Baseline, Max (to Day 1, 6 hours): 6 breaths/minute | Respiratory Rate, Change from Baseline, Mean (to Day 1, 6 hours): −0.2 breaths/minute | Respiratory Rate, Change from Baseline, Median (to Day 1, 6 hours): 0.0 breaths/minute | Respiratory Rate, Change from Baseline, Min (to Day 1, 6 hours): −8 breaths/minute | Respiratory Rate, Change from Baseline, Max (to Day 2 - Discharge): 4 breaths/minute | Respiratory Rate, Change from Baseline, Mean (to Day 2 - Discharge): −0.0 breaths/minute | Respiratory Rate, Change from Baseline, Median (to Day 2 - Discharge): 0.0 breaths/minute | Respiratory Rate, Change from Baseline, Min (to Day 2 - Discharge): −4 breaths/minute | Respiratory Rate, Change from Baseline, Max (to Day 8): 4 breaths/minute | Respiratory Rate, Change from Baseline, Mean (to Day 8): −0.2 breaths/minute | Respiratory Rate, Change from Baseline, Median (to Day 8): 0.0 breaths/minute | Respiratory Rate, Change from Baseline, Min (to Day 8): −6 breaths/minute | Respiratory Rate, Change from Baseline, Max (to Day 15): 6 breaths/minute | Respiratory Rate, Change from Baseline, Mean (to Day 15): −0.1 breaths/minute | Respiratory Rate, Change from Baseline, Median (to Day 15): 0.0 breaths/minute | Respiratory Rate, Change from Baseline, Min (to Day 15): −3 breaths/minute

— US20260027068A1, “METHODS OF ADM[…]-KETAMINE” (Perception Neuroscience, Inc., priority 2022, published 2026)
